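1) Cells in 96-well plates. 2) Compound, 48 h, 5 concentrations. 3) Linear interpolation between surrounding doses. 4) Unreached endpoint = highest concentration. TGI marks complete inhibition of growth.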

Our source for the TGI values is PubChem BioAssay (NCI).

Test in all cases: inhibition of tumour cell growth, NCI panel, 48 h
The subject of assay [1] is SNB-19 CNS.
The test system of assay [2] is MDA-MB-435.
Assay [3] deals with CCRF-CEM leukemia.
Assay [4] deals with UO-31 renal.
Assay [5] concerns KM12 colon.
Assay [6] relates to K-562 leukemia.
For assay [7], the system named is NCI-H460 lung.
Assay [8] relates to HL-60(TB) leukemia.
Assay [9] relates to BT-549 breast.
For assay [10], the system named is TK-10 renal.
The test system of assay [11] is SR leukemia.
Assay [12] has as its system MCF7 breast.
Assay [13] concerns RPMI-8226 leukemia.
Assay [14] deals with T-47D breast.
Assay [15] has as its system SK-MEL-5 melanoma.
Assay [16] deals with SNB-75 CNS.
The test system of assay [17] is MOLT-4 leukemia.
The subject of assay [18] is ACHN renal.
Assay [19] concerns A498 renal.
The test system of assay [20] is HOP-62 NSCLC.

On to `CC(=O)N(C(=O)CC(=O)NNCc1ccccc1Cl)c1ccc(Cl)cc1`, for which the TGI in [1], in assay [2], in assay [3], in assay [4], in assay [5] and in [6] was over 10 µM throughout. Further, the TGI in assay [7], in assay [8], in assay [9], in assay [10], in assay [11] and in assay [12] was over 10 µM throughout. Further, the TGI in assay [13], in assay [14], in [15], in assay [16], in assay [17] and in assay [18] was over 10 µM each time. The TGI in assay [19] and in [20] was over 10 µM in each case.
With `Cc1nc2ccc(F)cc2c2c1CCN2c1ccccc1`, the TGI in assay [1] was over 100 µM; in assay [2] it was 32.8 µM; in assay [3], 53.2 µM; in assay [4], 68.1 µM; in assay [5] it was over 100 µM; in assay [6], 33.4 µM. In addition, the TGI in assay [7] stood at 36.1 µM; in [8] it was 24.6 µM; in [9] it was 44.2 µM; in assay [10], 71.5 µM; in assay [11], 37 µM; in assay [12] it was 64.7 µM. Besides, the TGI in [13] stood at 37.1 µM; in [14], 85.8 µM; in assay [15] it was 26.8 µM; in [16], 79.1 µM; in assay [17] it was 52.4 µM; in assay [18], 67 µM. For the same compound, the TGI in [19] is 77.2 µM; in assay [20] it was over 100 µM.
Regarding `CSC1=NC(=O)CCN1C1OCC(OC(C)=O)C(OC(C)=O)C1OC(C)=O` (stereo not given), the TGI was over 31.6 µM in assay [1]; over 31.6 µM in assay [2]; over 31.6 µM in [3]; 57.8 µM in assay [4]; over 31.6 µM in [5]; over 31.6 µM in assay [6]. Besides, the TGI in assay [7] was over 31.6 µM; in [8] it was over 23 µM; in assay [9] it was 25 µM; in [10], 26 µM; in assay [11], over 31.6 µM; in assay [12] it was over 100 µM. Also, the TGI in assay [13] was over 31.6 µM; in assay [14], over 31.6 µM; in assay [15] it was 17.9 µM; in assay [16], 22.7 µM; in assay [17], over 31.6 µM; in assay [18] it was over 31.6 µM. Further, the values for the TGI in [19] and in assay [20] were 25.3 µM and over 31.6 µM, respectively.
As for `COCn1c(=O)n(C)c(=O)c2c1nc1c(c(=O)n(C)c(=O)n1COC)[n+]2[O-]`, the TGI in assay [1] was over 100 µM; in [2], 40.2 µM; in assay [3], 27.4 µM; in assay [4], over 100 µM; in assay [5] it was over 100 µM; in assay [6], 24 µM. The TGI is 24.9 µM in [7]; 39.1 µM in [8]; 87.1 µM in assay [9]; 58.8 µM in assay [10]; 21.3 µM in assay [11]; over 100 µM in assay [12]. Further, the TGI was 37.8 µM in assay [13]; 41.8 µM in [14]; 19.7 µM in assay [15]; 22.3 µM in assay [16]; 29.5 µM in [17]; 38 µM in [18]. Further, the results for the TGI in assay [19] and in [20] were 82.8 µM and 59.1 µM, respectively.
In the case of `Nc1nc(Cl)cc(NCC2(CO)CC(CCCc3ccccc3)C2)n1` (stereo not given), the TGI in [1], in assay [2], in assay [3], in [4], in assay [5] and in assay [6] was over 100 µM each time. The TGI in assay [7], in assay [8], in assay [9], in [10], in assay [11] and in assay [12] was over 100 µM each time. The TGI was over 100 µM in [13]; over 100 µM in [14]; over 100 µM in assay [15]; 98.2 µM in assay [16]; over 100 µM in [17]; over 100 µM in assay [18]. The TGI in assay [19] and in [20] was over 100 µM throughout.
For `CCCCCCCCCCCCCCCCCCNc1ccn(C2OC(COP(=O)(O)OCC(COP(=O)(O)OCC3OC(n4cc(C)c(=O)[nH]c4=O)CC3N=[N+]=[N-])OCCCCCCCCCCCCCCCCCC)C(O)C2O)c(=O)n1` (stereo not given), the TGI was 50.5 µM in assay [1]; over 100 µM in assay [2]; over 100 µM in [3]; 33.1 µM in assay [4]; over 100 µM in assay [5]; over 100 µM in assay [6]. Besides, the TGI in assay [7], in [8], in assay [9], in assay [10], in [11] and in [12] was over 100 µM throughout. Further, the TGI in [13], in [14], in assay [15], in assay [16], in [17] and in [18] was over 100 µM throughout. For the same compound, the TGI in [19] and in assay [20] was over 100 µM each time.
In the case of `SCc1ccc(-c2ccc(CS)cc2)cc1`, the TGI was 36.4 µM in assay [1]; 22.8 µM in assay [2]; 10.7 µM in assay [3]; 37.8 µM in [4]; 10.1 µM in [5]; 26.9 µM in [6]. For the same compound, the TGI in assay [7] was 25.1 µM; in [8] it was 12.4 µM; in [9], 6.47 µM; in [10], over 61.3 µM; in assay [11], 5.79 µM; in assay [12], 29.3 µM. In addition, the TGI in [13] stood at 30.6 µM; in [14], 41.6 µM; in assay [15], 31 µM; in assay [16], 28.1 µM; in [17], 6.37 µM; in assay [18], 43.1 µM. For the same compound, the TGI in assay [19] is over 64.3 µM; in assay [20] it was 14 µM.
Take `COc1cc(/C=C2/CCCc3ccccc3C2=O)cc(OC)c1OC`: the TGI is over 100 µM in assay [1]; over 70.6 µM in [2]; over 100 µM in assay [3]; over 60.2 µM in [4]; over 50.1 µM in assay [5]; over 23.8 µM in assay [6]. Also, the TGI in assay [7] was over 100 µM; in assay [8], over 100 µM; in [9], over 78.5 µM; in assay [10] it was over 100 µM; in [11], over 39.2 µM; in assay [12], over 63.9 µM. Further, the TGI in assay [13] is over 78.9 µM; in [14] it was over 100 µM; in assay [15], 13.6 µM; in assay [16], over 49.9 µM; in [17] it was over 35 µM; in assay [18] it was over 100 µM. Also, the results for the TGI in assay [19] and in assay [20] were over 75 µM and over 58.9 µM, respectively.
For `CC(/C=C/C=C\C=C\C=C(/C)C(=O)NC(C)CO)=C\C(C)C(O)/C(C)=C/C(C)CCc1ccccc1` (stereo not given), the TGI in assay [1] was 35.8 µM; in [2], 39.7 µM; in assay [3] it was over 56.6 µM; in assay [4], 27.3 µM; in assay [5] it was 19.1 µM; in assay [6] it was over 53.6 µM. The TGI in assay [7] is 26.5 µM; in [8] it was over 100 µM; in [9], 33.1 µM; in assay [10], 32.1 µM; in assay [11] it was over 59 µM; in [12], 19.7 µM. Further, the TGI in [13] was over 78.6 µM; in assay [14] it was 46.4 µM; in assay [15], 15.5 µM; in assay [16], 26.7 µM; in [17] it was 55.6 µM; in assay [18], 21.9 µM. Further, the results for the TGI in assay [19] and in assay [20] were 26.7 µM and 37.5 µM, respectively.
On to `O=c1[nH]c(=S)n(-c2cccc3ccccc23)c(O)c1/C=C1\C=Nc2ccccc21`, for which the TGI in [1] came to 11.3 µM; in assay [2], 6.69 µM; in [3] it was 5.35 µM; in assay [4], 4.93 µM; in assay [5] it was 6.87 µM; in [6], 7.11 µM. The TGI in [7] was 5.38 µM; in assay [8] it was 5.27 µM; in assay [9], 3.55 µM; in [10], 6.06 µM; in assay [11], 4.04 µM; in assay [12], 7.19 µM. Also, the TGI in [13] is 4.96 µM; in assay [14], 19.3 µM; in assay [15], 3.12 µM; in assay [16] it was 6.42 µM; in assay [17] it was 5.02 µM; in [18], 5.73 µM. For the same compound, the figures for the TGI in assay [19] and in assay [20] were 4.25 µM and 10.7 µM, respectively.
Take `C/C(=N\N)C(CN1CCCCC1)C(c1ccccc1)c1c(O)c2ccccc2oc1=O` (stereo not given): the TGI in assay [1], in assay [2], in assay [3], in assay [4], in [5] and in assay [6] was over 100 µM in each case. Further, the TGI in [7], in assay [8], in assay [9], in assay [10], in [11] and in assay [12] was over 100 µM in each case. The TGI in assay [13], in [14], in assay [15], in assay [16], in [17] and in assay [18] was over 100 µM in each case. Besides, the TGI in assay [19] and in [20] was over 100 µM in each case.
As for `CC(=O)NC1C(O)C(O)C(CO)OC1n1nc(SCc2ccccc2)c(=O)[nH]c1=O` (stereo not given), the TGI in assay [1], in assay [2], in assay [3], in assay [4], in [5] and in assay [6] was over 100 µM each time. For the same compound, the TGI in [7], in assay [8], in assay [9], in assay [10], in assay [11] and in [12] was over 100 µM in each case. Also, the TGI in assay [13], in assay [14], in assay [15], in assay [16], in [17] and in assay [18] was over 100 µM each time. The TGI in [19] and in assay [20] was over 100 µM throughout.
Take `CC1(C)[C@H]2CC[C@](C)(C2)[C@]1(S)Cc1ccccn1`: the TGI in assay [1] is over 100 µM; in assay [2], 91.9 µM; in assay [3], 24.8 µM; in [4], over 100 µM; in assay [5], over 100 µM; in assay [6], over 100 µM. Further, the TGI was over 100 µM in [7]; 50.9 µM in [8]; over 100 µM in [9]; over 100 µM in [10]; 43.2 µM in [11]; over 100 µM in assay [12]. The TGI is 93.5 µM in assay [13]; 73.1 µM in assay [14]; 64.3 µM in assay [15]; 77.1 µM in [16]; 54 µM in [17]; over 100 µM in [18]. Moreover, the TGI in assay [19] and in assay [20] was over 100 µM throughout.
